Measurements published in patent publication US20080200538A1, “Inhibition of Monocyte Survival, Differentiation, or Proliferation” (The Ohio State University Research Foundation, priority 2005, published 2008).

What was measured:
THP-1 cells [1] = assay: Cell viability assay (CellTiter 96 / MTT, A490); type: cell-based, human; conditions: THP-1, 50 to 500 μM apigenin, 24 h; reduced to
Experimental: (§1) FIG. 1. Effect of apigenin and naringenin in cell survival of cancer cells. (A) Structure of the flavonoids apigenin and naringenin. (B) THP-1, U937, A549, and MCF-7 cells were treated with various doses of apigenin or naringenin for 24 h. After the treatment, the percentage of cell proliferation was calculated as the ratio of treated cells to control cells as determined by the MTT method (A490). Data represents means ±SEM (N=9). […] Cells were plated at a density of 2×10^4 cells/well into 96-well plates and treated with flavonoids at indicated concentrations for 24 h. Absorbance at 490 nm (A490) was recorded using an ELISA plate reader (Bio-Tek ELx800, KC Junior, Winooski, Vt.).

U937 cells = assay: Cell viability assay (CellTiter 96 / MTT, A490); type: cell-based, human; conditions: 24 h, reduced to
Experimental: as §1

A549 cells = assay: Cell viability assay (CellTiter 96 / MTT, A490); type: cell-based; conditions: A549, apigenin, 24 h; reduced to
Experimental: as §1

MCF-7 cells = assay: Cell viability assay (CellTiter 96 / MTT, A490); type: cell-based; conditions: MCF-7, apigenin, 24 h; reduced to
Experimental: as §1

TNFα [2] = assay: Cytokine expression in LPS-treated monocytes by quantitative PCR; type: cell-based; conditions: 10 ng/ml LPS and 10 μM apigenin
Experimental: (§2) Expression of IL-1β, IL-8 and TNFα was analyzed by quantitative PCR using lysates from monocytes left untreated, treated with 10 ng/ml of LPS or with LPS and 10 μM of apigenin. Values represent means ±SEM (N=4).

IL-1β = assay: as above; type: cell-based; conditions: 10 ng/ml LPS and 10 μM apigenin
Experimental: as §2

IL-8 = assay: as above; type: cell-based; conditions: 10 ng/ml LPS and 10 μM apigenin
Experimental: as §2

LPS stimulated monocytes = assay: Cell death of LPS-treated monocytes (calcein AM/PI); type: cell-based; conditions: monocytes stimulated with LPS, increasing amount of apigenin
Experimental: (§3) To investigate apoptosis, cells were plated at a density of 1×10^6 cells/well. After treatment, cells were collected and washed in PBS. Cells were then incubated in RPMI (no phenol red) and 1 μg/ml calcein AM for 30 min and 5×10−2 ng/ml propidium iodide (PI) for 5 min. Cells were washed twice and resuspended in PBS. Cells were viewed using a fluorescent microscope (Olympus, Melville, N.Y.). At least 200 cells were counted. Cells calcein AM positive (green) in the absence of PI (red) were considered alive while cells undergoing apoptosis are green with red. Number of green cells or green with red cells was counted over total number of cells (green alone and green with red) to express cell survival or apoptotic cell percentage respectively.
Apigenin induces cell death on LPS-treated monocytes. Monocytes were stained with calcein AM and PI as described in Material and Methods to evaluate the percentage of cell death and survival. Monocytes freshly isolated (Fresh), treated for 16 h with 10 ng/ml LPS alone, left untreated (NT) or (A) treated with different doses of apigenin, (B) with LPS and apigenin, or (C) with LPS 1 h prior to the addition of apigenin. Values represent the means ±SEM (N=#, *P<0.05 compared to LPS alone).

caspase-3 = assay: Caspase-3 activity, DEVD-AFC assay, U937 lysates; type: cell-based, human; conditions: U937, 50 μM apigenin; remained high even after 24 h
Experimental: (§4) FIG. 3. Apigenin induces caspase activation in monocytic leukemia. THP-1 (top) and U937 (bottom) leukemia cells were treated for various lengths of time with 50 μM apigenin or DMSO (NT). (A and C) Caspase-9 activity was determined by the LEHDAFC assay. (B and D) Caspase-3 activity was determined by the DEVD-AFC assay. Data represents means ±SEM (N=3).
(§5) For measurements of caspase activity, cells were plated at a density of 1.5×10^6 cells/well. After treatment, cells extracts were prepared as previously described (Doseff, A. I., Baker J. H., Bourgeois T. A. and Wewers M. D. (2003) Interleukin-4-induced zpoptosis entails caspase activation and suppression of extracellular signal-regulated kinase phosphorylation. Am. J. Resp. Cell Mol. Biol., 29, 367-374). Protein extracts were incubated with 20 μM DEVD-AFC to determine caspase-3 activity or LEHD-AFC to determine caspase-9 activity (Enzyme Systems Products, Livermore, Calif.) in a cytobuffer as previously described (Doseff, A. I., Baker J. H., Bourgeois T. A. and Wewers M. D. (2003) Interleukin-4-induced zpoptosis entails caspase activation and suppression of extracellular signal-regulated kinase phosphorylation. Am. J. Resp. Cell Mol. Biol., 29, 367-374). Levels of released AFC were measured using Cytofluor 400 fluorimeter (Filters: excitation 400 nm, emission 508 nm; Perspective Co., Framingham, Mass.).

caspase-9 = assay: Caspase-9 activity, LEHD-AFC assay, U937 lysates; type: cell-based, human; conditions: U937, 50 μM apigenin; remained high even after 24 h
Experimental: as §4, §5

THP-1 cells [3] = assay: Reverse-phase HPLC of extracts of treated THP-1 cells (conversion of compound); conditions: extracts of THP-1 cells, data not shown
TNFα [4] = assay: TNFα release by LPS stimulated monocytes; type: cell-based
THP-1 cells [5] = assay: Cell survival and apoptosis by calcein AM/PI staining; type: cell-based, human
Experimental: FIG. 2. Apigenin induces cell death in monocytic leukemia cells. THP-1 and U937 leukemia cells were treated for various lengths of time with 50 μM apigenin or left untreated (NT) and stained with calcein AM and PI as described in Material and Methods to evaluate the percentage of cell survival. (A) THP cells after 12 h cells treated with 50 μM apigenin or with DMSO (NT). (B) The percentage of cell survival represented by means ±SEM (N=3).
FIG. 4. Caspase-3 activation is required for apigenin-induced apoptosis. THP-1 cells were treated for 12 h with 50 μM apigenin alone or pretreated with 20 μM DEVD-FMK for 1 h prior to the addition of apigenin. (A) Cells were then stained with calcein AM and 24 PI and the percentage of apoptotic cells was determined. (B) Lysates from cells treated as described above were used to determined caspase-3 activity by the DEVD-AFC assay. All data represents means ±SEM (N=5).
FIG. 7. Apigenin induced p38 activation is not required for apoptosis. A. Cells were pretreated for 1 h prior to addition of 50 μM apigenin or DMSO (−) with 10 or 25 μM concentrations of SB203580 or DMSO (−) for 12 h. The percentage of apoptotic cells was determined by calcein AM with PI stained cells. Data represents means ±SEM (N=5 p>0.05). B. Lysates from the same treatments were used to determined caspase-3 activity by the DEVD-AFC assay. Data represents means ±SEM (N=5 p>0.05).
as §3

O=c1cc(-c2ccc(O)cc2)oc2cc(O)cc(O)c12 [apigenin]
cell proliferation (ratio of treated to control cells) (THP-1 cells [1]): approximately 20%
cell proliferation (ratio of treated to control cells) (U937 cells; U937, 50 μM apigenin): 50%
cell proliferation (ratio of treated to control cells) (U937 cells; U937, higher concentrations of apigenin (above 50 μM)): 20%
cell proliferation (ratio of treated to control cells) (A549 cells): 80%
cell proliferation (ratio of treated to control cells) (MCF-7 cells): 80%
expression of TNFα (TNFα [2]): inhibits the expression
expression of IL-1β (IL-1β): inhibits the expression
expression of IL-8 (IL-8): inhibits the expression
death of LPS stimulated monocytes (LPS stimulated monocytes): induces the death of such stimulated monocytes in an apigenin-dose dependent manner
caspase-3 activity, time course (caspase-3): detected at 9 h
caspase-9 activity, time course (caspase-9): detected at 9 h
conversion to another chemical entity in treated cells (THP-1 cells [3]): neither one of these two compounds is significantly converted
release of TNFα (TNFα [4]): inhibits
viability at 50 µM (THP-1 cells [5]; Homo sapiens, THP-1, 12 h, read-out: cell viability (survival)): 30%
apoptotic cells (THP-1 cells [5]; THP-1, 50 μM apigenin alone, 12 h): 70%
cell survival (THP-1 cells [5]; THP-1, 50 μM, 9 h, reduced to): 80%
